1 compound from US20250270159A1, “1-(CYCLOBUTANEMETHYLIDENE)-2, 4, 5-TRIMETHOXYBENZENE COMPOUND AND PREPARATION METHOD AND USE THEREOF” (CHENGDU XINRUI TAIKANG TECHNOLOGY CO., LTD., priority 2023, published 2025) can be followed below.

The experiment relates to IL-1. Nature of the experiment: IL-1 in cerebral cortex of TBI rats. Type of experiment: in vivo, SD rats. Conditions: 30 mg/kg ip 2 h after TBI; 24 h after administration; FIG. 3. The procedure: The experimental grouping and drug administration plan were as follows. • Sham operation group (Group P): saline was given with the same volume as in the CTMB group; • Model group (T group): a blank emulsion was given with the same volume as in the CTMB group; • Medium dose group (Group M): a dose of 30 mg/kg of CTMB emulsion injection was given.
The experimental grouping and drug administration plan were the same as the test 3. After 2 h of the TBI modeling, different groups of rats were administered intraperitoneally. After 24 h of the administration, the rats were deeply anesthetized, the head was severed and the brain was removed, about 60-120 mg of hemisphere cortex was taken out from the hemisphere on the blood side, 10 times the volume of ice-cold centrifugal buffer used for biochemical assays was added, homogenization was carried out in an ice bath for 10 min, and centrifugation was carried out at 4° C. and 14000 rpm/min for 30 min. The supernatant was extracted, and inflammatory factors IL-1, IL-6, and TNF-α were tested according to the instructions of IL-1, IL-6, and TNF-α assay kits, respectively.

For the compound `COc1cc(OC)c(OC)cc1C=C1CCC1` [CTMB, 1-(cyclobutylidenemethyl)-2,4,5-trimethoxybenzene], the “content of IL-1 in cerebral cortex tissue” value is on record as “significantly reduced”.
